Measured values as given in patent EP2177604A1, “Methods for identifying potential CYP4 metabolites, inhibitors or prodrugs” (PomBio Tech GmbH, priority 2008, dated 2010).
Where two headings read alike, the source gives them in different places.

Target: T1, human CYP4Z1 (Homo sapiens, UniProt Q86W10)
T1 sequence (Q86W10 1-505): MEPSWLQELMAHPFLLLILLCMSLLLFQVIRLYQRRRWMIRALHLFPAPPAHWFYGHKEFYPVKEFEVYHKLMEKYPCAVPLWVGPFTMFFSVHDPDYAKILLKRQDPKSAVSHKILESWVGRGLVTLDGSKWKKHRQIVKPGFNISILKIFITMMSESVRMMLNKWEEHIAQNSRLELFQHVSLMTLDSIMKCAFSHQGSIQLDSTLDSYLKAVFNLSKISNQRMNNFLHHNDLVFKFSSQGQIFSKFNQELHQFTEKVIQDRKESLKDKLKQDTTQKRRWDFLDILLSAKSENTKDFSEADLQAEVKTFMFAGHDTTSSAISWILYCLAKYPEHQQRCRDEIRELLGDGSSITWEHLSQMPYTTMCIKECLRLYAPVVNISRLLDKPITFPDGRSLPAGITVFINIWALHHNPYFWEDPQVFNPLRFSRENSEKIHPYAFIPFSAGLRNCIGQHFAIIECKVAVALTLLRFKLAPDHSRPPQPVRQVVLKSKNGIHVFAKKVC
Test: whole-cell biotransformation (substrate conversion) assay with fission yeast strains expressing CYP4Z1
Conditions: for metabolite formation / metabolism by human CYP4Z1: fission yeast strains AZ1 and AZ3, 1 mM substrate, 24 h at 30°C, HPLC (steroids, vitamin D, ebastine) or GC-MS (fatty acids)
Experimental: Possible substrates of human CYP4Z1 were tested by incubating the fission yeast strains AZ1 and AZ3 as well as the control strains NCYC2036 and CAD 62 with 1 mM substrate. […] Approximately 2*10^8 cells/mL were used per assay. Cells were grown in EMM medium containing 100 g/L glucose as well as the required supplements (leucine for AZ1 and CAD 62). Incubation was carried out either in 96 well microtiter plates or in 250 mL Erlenmeyer flasks with a cellulose stopper at a shaking velocity of 150 rpm for 24 h at 30°C.
Samples containing steroids as possible substrates were extracted with ethylacetate, evaporated and analyzed via HPLC (Alliance, Waters, USA) using a RP-18 column (Licrosphere 100, 5µM, Merck, Darmstadt) or a RP-8 column (Licrosphere 100, 5µM, Merck, Darmstadt). The column temperature was kept constant at 40°C. The mobile phase used for each sample is outlined in Suppl. Table. 1. When available, positive control reactions were carried out using strains expressing a P450 that is known to metabolize the respective substrate.
Fatty acid conversions were analyzed via GC-MS as previously described. Fatty acid extraction from S.pombe cells was performed using the Bligh and Dyer method.. Extracted samples were then evaporated to dryness, dissolved in a mixture of 500 µl methanol/toluene/sulphuric acid (50:50:2 V/V) and incubated at 55 °C overnight. 400µl of a 0.5 M […], 2 M KCl solution were added to the samples which were then centrifuged at RT, transferred to a GC vial and derivatised with 25 µl N-Methyl-N-(trimethylsilyl)trifluoroacetamide (37 °C for 1 hour). Fatty acid analysis was performed on an Agilent 6890N gas chromatograph coupled to an Agilent 5973N mass selective detector and equipped with a non-polar J&W DB-5HT capillary column, as described before.

SMILES | metabolite formation / metabolism by human CYP4Z1 | main hydroxylation position (MS fragmentation analysis) | other hydroxylated fatty acids detected besides the main product | main hydroxylation position (MS fragmentation analysis) (CYP4Z1 whole-cell biotransformation, GC-MS, main product) | other hydroxylated fatty acids detected besides the main product (CYP4Z1 whole-cell biotransformation, GC-MS, minor products)
C=C1CC[C@H](O)C/C1=C/C=C1\CCC[C@]2(C)[C@@H]([C@H](C)CCCC(C)C)CC[C@@H]12 [vitamin D3] | not metabolized | – | – | – | –
CCCCCCCCCCCC(=O)O [lauric acid] | – | predominantly ω-4-hydroxylated | ω-2-, ω-3-, ω-5-hydroxylated | – | –
CCCCCCCCCCCCCC(=O)O [myristic acid] | able to hydroxylate | – | – | mainly hydroxylated at position ω-2 | ω-3-, ω-4-, ω-5-hydroxlated
